The test system of data set [1] is oral mucosal cells (human gingival fibroblasts and keratinocytes). As to conditions: direct application, in vitro; cited from earlier work.
For data set [2] the following is noted: in the glycerin gels; cited from earlier work.
Data set [3] relates to MRONJ. As to conditions: oral alendronate users, 208 patients; cited from earlier work.
The subject of data set [4] is capillary neoangiogenesis. Particulars: cited from earlier work.
Another data set deals with MRONJ lesions. The experiment in a line: Clinical observation of MRONJ patients (Example 1). The format is in vivo, human. Particulars: one patient on intravenous zoledronate, multiple myeloma; lesion smoothed, antibiotic regimen; observed a little over a year.
Data set [5] relates to MRONJ. As to conditions: out of 24 patients treated with 0.12% chlorhexidine; cited from earlier work.

As to `O=P(O)(O)C(O)(Cn1ccnc1)P(=O)(O)O` [zoledronic acid], the “effect on the life of oral mucosal cells” value in data set [1] is on record as “deleterious effect on the life of these cells”.

With `[F][Sn][F]` [stannous fluoride], the stability entry in data set [2] was “relatively stable”.

Take `NCCCC(O)(P(=O)(O)O)P(=O)(O)O` [alendronate]: in the data set with MRONJ [3], the MRONJ prevalence rate is recorded as 4%.

With `NCCC(O)(P(=O)(O)O)P(=O)(O)O` [pamidronate], in data set [4], the “effect on new formation of capillaries from blood vessels (capillary neoangiogenesis)” value was “inhibit the new formation of capillaries from blood vessels”.

As to Augmentin, in the data set on MRONJ lesions, the “outcome of bone lesion” value is “continued to increase in size and did not heal”.

On to `[H]/N=C(\N/C(=N/[H])NCCCCCCNC(=N)NC(=N)Nc1ccc(Cl)cc1)Nc1ccc(Cl)cc1` [chlorhexidine], for which, in the data set with MRONJ [5], the “patients who experienced MRONJ progression” value is recorded as 13 patients, the “patients who experienced MRONJ resolution” value is 3 patients and the “patients who experienced no change in ONJ status” value was 8 patients.

The values above are taken from patent US20210177893A1, “Composition and method for treating and healing Medication-Related Osteonecrosis of the Jaw (MRONJ)” (priority 2019, published 2021).
